Laboratory results taken from ChEMBL document CHEMBL1151549, “Design and synthesis of new taxol-containing aminophosphates as protaxols” (Bioorg Med Chem Lett, 1997).
Converted amounts (≈) assume the structure as drawn.

The compounds below were run on HL-60 (assay: Tested in vitro for the anticancer activity against HL-60 leukemia cells). Conditions: Homo sapiens.
Assay type: functional, cell-based

Structure (SMILES) | IC50 [µg/mL]
CC(=O)O[C@H]1C(=O)[C@@]2(C)[C@H]([C@H](OC(=O)c3ccccc3)[C@]3(O)C[C@H](OC(=O)[C@H](OP(=O)(O)OCCCN)[C@@H](NC(=O)c4ccccc4)c4ccccc4)C(C)=C1C3(C)C)[C@]1(OC(C)=O)CO[C@@H]1C[C@@H]2O | 4 (≈ 4.04 µM)
CC(=O)O[C@H]1C(=O)[C@@]2(C)[C@H]([C@H](OC(=O)c3ccccc3)[C@]3(O)C[C@H](OC(=O)[C@H](OP(=O)(O)OCCCCN)[C@@H](NC(=O)c4ccccc4)c4ccccc4)C(C)=C1C3(C)C)[C@]1(OC(C)=O)CO[C@@H]1C[C@@H]2O | 0.3 (≈ 0.299 µM)
CC(=O)O[C@H]1C(=O)[C@@]2(C)[C@H]([C@H](OC(=O)c3ccccc3)[C@]3(O)C[C@H](OC(=O)[C@H](OP(=O)(O)OCCN)[C@@H](NC(=O)c4ccccc4)c4ccccc4)C(C)=C1C3(C)C)[C@]1(OC(C)=O)CO[C@@H]1C[C@@H]2O | 0.8 (≈ 0.819 µM)
CC(=O)O[C@H]1C(=O)[C@@]2(C)[C@H]([C@H](OC(=O)c3ccccc3)[C@]3(O)C[C@H](OC(=O)[C@H](O)[C@@H](NC(=O)c4ccccc4)c4ccccc4)C(C)=C1C3(C)C)[C@]1(OC(C)=O)CO[C@@H]1C[C@@H]2O [PACLITAXEL] | 0.001 (≈ 0.00117 µM)
